Experimental data from PubChem BioAssay (NCI).
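A five-concentration, 48-hour dose response in 96-well plates underlies each endpoint, interpolated linearly between surrounding concentrations. GI50 marks 50% less growth. TGI marks complete inhibition of growth.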

Columns and labels:
Experiment in all cases: inhibition of tumour cell growth, NCI panel, 48 h
[1] = system: CCRF-CEM leukemia
[2] = system: RPMI-8226 leukemia
[3] = system: LOX IMVI melanoma
[4] = system: NCI-H226 lung
[5] = system: HT29 colon
[6] = system: PC-3 prostate
[7] = system: HL-60(TB) leukemia
[8] = system: NCI/ADR-RES ovarian
[9] = system: CAKI-1 renal
[10] = system: SR leukemia

SMILES | GI50 [1] [µM] | TGI [1] [µM] | GI50 [2] [µM] | TGI [2] [µM] | GI50 [3] [µM] | TGI [3] [µM] | GI50 [4] [µM] | TGI [4] [µM] | GI50 [5] [µM] | TGI [5] [µM] | GI50 [6] [µM] | TGI [6] [µM] | GI50 [7] [µM] | TGI [7] [µM] | GI50 [8] [µM] | TGI [8] [µM] | GI50 [9] [µM] | TGI [9] [µM] | TGI [10] [µM] | GI50 [10] [µM]
COc1cc2c(cc1O)c(=O)n(CCN(C)C)c1c3cc4c(cc3ncc21)OCO4 | < 0.01 | > 26.8 | 0.0242 | 0.434 | < 0.01 | 0.0245 | 0.0184 | 0.124 | 0.729 | 7.86 | 0.243 | 2.51 | < 0.01 | 0.104 | < 0.01 | 0.526 | < 0.01 | 1.24 | – | –
O=C(O)CCSC(=O)Nc1cccc2ccccc12 | – | > 100 | – | > 100 | – | > 100 | – | > 100 | – | > 100 | – | – | – | – | – | – | – | > 100 | > 100 | –
C1C[OH+]CCNCC[OH+]CC[OH+]CCN1.N.[Cl-].[Pt+4] | 53.6 | > 100 | 27.5 | > 100 | 33.2 | > 100 | 38.2 | > 100 | 43.7 | > 100 | – | – | > 100 | > 100 | – | – | 29 | > 100 | – | –
COc1ccc(-c2cc(-c3ccc(OC)cc3)nc(NCCCNc3ccnc4cc(Cl)ccc34)n2)cc1 | 2.26 | 6.98 | – | – | 1.79 | 3.25 | 11.3 | 28.2 | 1.56 | 3.06 | – | – | 1.91 | 3.86 | 1.62 | 3.28 | 11.8 | 25.8 | 5.86 | 1.43
O=C1c2cc3c(cc2-c2c1c1ccc(F)cc1c(=O)n2C[C@H](O)[C@H](O)[C@H](O)CO)OCO3 | 0.0479 | 31.3 | 0.505 | 5.6 | – | – | – | – | 0.142 | 0.397 | 0.204 | 14.9 | 0.148 | 0.749 | 0.207 | 2.14 | – | – | – | –
CC[C@]12C=CCN3CC[C@@]4(c5ccc(OC)cc5N(C)[C@H]4[C@@](O)(C(=O)OC)[C@@H]1OC(=O)CCC(=O)O[C@H]1CC[C@H]4[C@@H]5CC[C@H]6CC(=O)CC[C@]6(C)[C@H]5CC[C@]14C)[C@@H]32 | 3.04 | > 100 | – | – | 2.83 | 11.7 | 3.84 | > 100 | 2.13 | 6.06 | 0.703 | > 100 | 2.12 | 5.36 | 2.91 | > 100 | – | – | – | –
COc1ccccc1NC(=O)C1=C(C)NC(C)=C(C(=O)Nc2ccccc2OC)C1c1ccccc1Cl | – | > 100 | – | > 100 | – | > 100 | – | > 100 | – | > 100 | – | – | – | > 100 | – | – | – | > 100 | > 100 | –
CC(=O)NCc1c(C(N)=O)ncn1Cc1ccccc1 | – | > 100 | – | > 100 | – | > 100 | – | – | – | > 100 | – | – | – | > 100 | – | – | – | > 100 | – | –
O=[N+]([O-])c1cc(I)cc(/C=N/NS(=O)(=O)c2ccc(Cl)cc2)c1O | – | 58.5 | – | 59.7 | – | 36.5 | – | – | – | 48.6 | – | – | – | 55.8 | – | – | – | 54.9 | 46.2 | –
COc1ccc(-c2cc(=O)c3cc(C)c(C)c(C(=O)O)c3o2)cc1 | – | > 100 | – | > 100 | – | – | – | – | – | > 100 | – | – | – | > 100 | – | – | – | > 100 | > 100 | –
CCOC(=O)CNC(=O)OCc1ccccc1 | – | > 100 | – | – | – | > 100 | – | – | – | > 100 | – | – | – | > 100 | – | – | – | > 100 | – | –
O=C(C=Nc1ccccc1S)c1ccco1 | – | 10.2 | – | 46.1 | – | – | – | – | – | 37.7 | – | – | – | 22.3 | – | – | – | 33.7 | – | –
COc1cc(/C=C2\NC(=O)C3Cc4c(OC)c(C)c(OC)c(OC)c4C2N3C)c(OC)c(C)c1OC (stereo not drawn) | – | > 100 | – | – | – | > 100 | – | > 100 | – | > 100 | – | – | – | > 100 | – | – | – | > 100 | > 100 | –
CC(=O)OC1=C2CC[C@@H]3C(CC[C@@]4(C)C3CC[C@@H]4OC(C)=O)[C@@]2(C)CC(C#N)C1=O (stereo partly drawn) | – | 53.1 | – | 46.9 | – | > 100 | – | > 100 | – | > 100 | – | – | – | 42.6 | – | – | – | – | – | –
CCN(CCO)CCCC(C)Nc1ccnc2cc(Cl)ccc12 (stereo not drawn) | > 100 | > 100 | – | – | > 100 | > 100 | > 100 | > 100 | > 100 | > 100 | > 100 | > 100 | 13.3 | 47.6 | – | – | > 100 | > 100 | – | –
CN=C1CN=C(OP(=O)(N2CCOCC2)N2CCOCC2)c2cc(Cl)ccc2N1 | – | > 100 | – | > 100 | – | > 100 | – | > 100 | – | > 100 | – | – | – | > 100 | – | – | – | > 100 | > 100 | –
